Test results as given in ChEMBL document CHEMBL3507680, “University of Dundee, Gates Library screen for HepG2 cell viability”.

Assay: Human HepG2 cell viability assay in 384 well format
Format: toxicity, cell-based
Parameters: dose 125 nL, time 70.5 hour; cytotoxicity at 70.5 h: concentration not given beside the values
Details: HepG2 cells, read-out: Inhibition

Row | Structure (SMILES) | cytotoxicity at 70.5 h [%]
1 | CC(C1CCN(Cc2ccc(N(C)C)nc2)CC1)N1CCOCC1 (configuration not stated) | 8.61
2 | CC(C)CCn1cc(C(C(=O)O)N2CCC(c3ccncc3)CC2)cn1 (configuration not stated) | 19.8
3 | CCCc1cc(C(=O)N2CCC3(CCCN(CCOC)C3=O)C2)cs1 (configuration not stated) | -7.15
4 | Cc1cc(NCCCC(F)(F)F)n2nc(C)cc2n1 | -1.87
5 | O=C(CC(F)(F)F)N1C[C@H]2CC[C@@H]1CN(Cc1ccccc1)C2 | -3.61
6 | O=C1CCC2(CCN(CCSc3ccccc3)CC2)CN1CCCO | -1.81
7 | Cc1ccc(S(=O)(=O)N2CCC(Cn3cc(C(C)(C)N)nn3)CC2)s1 | -6.09
8 | CC(C)CN1CCn2nc(CNc3ncnc4[nH]cnc34)cc2C1 | 10.6
9 | Cc1cnc(N2CCC(c3ccccc3)CC2)nc1-c1ccnn1C | -6.13
10 | CC(=O)Nc1ccc(C(=O)Nc2cnc3n2CCCC3)c(C)c1 | -1.77
11 | O=C(c1cccc(F)c1)N1C[C@@H](CN2CCCCC2)[C@@H](CO)C1 | -7.48
12 | CC(C)[C@@H]1CN(Cc2cnc3c(S(C)(=O)=O)cnn3c2)C[C@H]1N(C)C | -7.81
13 | CN(C)CCNc1cc(-c2ncccn2)c2cc[nH]c2n1 | -6.11
14 | O=C(CNC(Cn1cccn1)c1ccccc1)Nc1cnccn1 (configuration not stated) | 13
15 | CCC[C@@H]1CN(C(=O)c2conc2-c2ccccc2)C[C@H]1N(C)C | 0.694
16 | O=C(NCCCNc1cccnc1)c1ccc2nccn2c1 | -12.7
17 | Cc1cc(NCc2noc(C(C)C)n2)nc(-c2ccccc2)n1 | 12.1
18 | Cc1ncc(C)c(N2CCC(Cc3ccc(Cl)cc3)(C(=O)O)CC2)n1 | -9.85
19 | Cc1nc(C)c(CC(=O)N2C[C@@H](C(=O)O)[C@H](c3ccccc3C)C2)s1 | -17
20 | COCCN1CCC(CN(Cc2ccncc2)C2CCC2)CC1 | -6.79
21 | CCC[C@@H]1CN(C(=O)Cc2sc(C)nc2C)C[C@H]1C(=O)O | -5.07
22 | COCC1CCN(S(=O)(=O)N2C[C@@H](C)[C@](O)(C3CC3)C2)CC1 | -1.25
23 | CCOCc1nc2c(c(N(C)Cc3ccsc3)n1)CCNCC2 | -3.56

Row | Structure (SMILES) | cytotoxicity at 70.5 h [%]
24 | COc1cccc2c(=O)n(Cc3cc(C4CC4)[nH]n3)cnc12 | 0.602
25 | COCCN(Cc1sccc1C)Cc1nccn1CCOC | -4.3
26 | COC[C@]1(O)CCN(Cc2c[nH]c(CC3CCCC3)n2)CC1(C)C | 30.4
27 | CC(O)CN1CCc2[nH]nc(C(c3ccccc3)c3ccccc3)c2C1 (configuration not stated) | -5.7
28 | O=C1C[C@H]2CC[C@@H](CN1)N2c1cc(-c2ccccc2F)nc2ccnn12 | -4
29 | CCc1nc(C)c(-c2nccn2CC2CC(=O)N(CC)C2)[nH]1 (configuration not stated) | 1.63
30 | Cc1ccc([C@H]2CN(CCO)C[C@@H]2NC(=O)CN2CCCCC2=O)o1 | -11
31 | Cc1n[nH]c(C)c1CCN(C)C(=O)c1ccc(CCC(C)(C)O)cc1 | -3.14
32 | Cc1ncsc1CN1CCn2nc(CCC(=O)N3CCCC3)cc2C1 | -6.96
33 | CCc1cc(NCc2cc(CC(C)C)on2)n2nccc2n1 | -2.02
34 | Cc1ncsc1CCN(C)C(=O)CN1CC2(CCCC2)CC1=O | -15
35 | Cc1csc(CCNC(=O)C2CCCN(C3CCOCC3)C2)n1 (configuration not stated) | -11.1
36 | Cc1nc2c(c(NCC(c3ccccc3C)N(C)C)n1)CCNC2 (configuration not stated) | 25.9
37 | COc1cc(-c2nccn2CCn2cccn2)cc2c1OCO2 | -1.97
38 | Cc1ccc(C(C(=O)NCc2n[nH]c(N)n2)N(C)C)cc1 (configuration not stated) | -5.83
39 | Cc1cc(C)n2nc(CC(=O)N3CC[C@H]4NCCC[C@]4(CO)C3)nc2n1 | -3.3
40 | CCn1c(-c2ccccc2)nn(CC(=O)NCCc2ccc(C)o2)c1=O | -0.836
41 | CC(O)c1cccc(N2CCC3(CCC(=O)N(C4CCCC4)C3)CC2)n1 (configuration not stated) | -2.86
42 | CCOC(=O)CNc1nc(C(C)(C)C)nc2c1cnn2C | 1.33
43 | CCC(CC)N(Cc1ccc2c(c1)OCO2)C(=O)c1ccc(=O)n(C)c1 | -1.82
44 | O=C1NC2(CCN(C(=O)c3ccc(Cl)cc3)CC2)CC1c1ccccc1 (configuration not stated) | 20.8
45 | Cc1cc(F)ccc1-c1cc(NCCO)nc2[nH]ccc12 | 0.963
46 | CCCN1CCCC2(CCN(c3nc(C)nc4ccsc34)C2)C1=O (configuration not stated) | -3.49

Row | Structure (SMILES) | cytotoxicity at 70.5 h [%]
47 | CCc1ccc(OCCN(C)C(=O)c2ccncc2Cl)cc1 | -5.33
48 | Cc1nnc(CCNC(=O)C(c2ccc(F)cc2)N(C)C)[nH]1 (configuration not stated) | 25
49 | Cn1ncc2c(N3CCCC(C)(O)C3)nc(-c3cccnc3)nc21 (configuration not stated) | 9.87
50 | CCc1nc(N2CCC3(CC2)[C@H](O)C[C@@H]3O)ncc1C | -5.93
51 | CN(Cc1nncn1C)c1nccc(C2CCCC2)n1 | 6.4
52 | CCOc1ccc(CN2CCC3(CC2)CNC(=O)C3)cn1 | -1.37
53 | COCC(NC1CCSCC1)c1ccnn1C (configuration not stated) | 21.8
54 | C[C@@H]1CN(C(=O)C2(Cn3cccn3)CC2)C[C@@]1(O)C1CCC1 | -0.77
55 | CSCc1ccc(N2CCC(C(O)CC(C)C)CC2)nc1 (configuration not stated) | 6.44
56 | COc1cccc(-c2n[nH]c3c2CN(C(=O)c2cc(C)n(C)n2)CC3)c1 | -7.15
57 | Cc1cn(CCn2ccnc2-c2sccc2C)nn1 | -2.5
58 | Cc1cc(C(=O)N2CC[C@](C)(O)[C@H](C)C2)c(C)n1C | 18.2
59 | CCN(Cc1cc(Cl)ccc1OC)Cc1nccn1C | 12.7
60 | CCc1nnc(CNC(=O)c2cc3c(nc2OC)CCC3)s1 | 2.77
61 | Cc1ccc(CN2CCN(c3cc(NCCO)ncn3)CC2CCO)o1 (configuration not stated) | -5.58
62 | COc1nc2ccn(CCc3cnccn3)c(=O)c2cc1C#N | 40.2
63 | Clc1cc(NCc2ncc[nH]2)nc2[nH]ccc12 | -6.45
64 | COCCN1CC2(CCC1=O)CCN(Cc1cc(F)ccc1Cl)CC2 | 6.46
65 | Cc1cc2nc(-c3cn(C4CCNCC4)nn3)[nH]c2cc1C | -2.26
66 | Cc1cccc(Cn2nc(C3CCNCC3)n(-c3ccccc3)c2=O)c1 | -5.91
67 | COc1ccc2c(c1)OCC(CNC(=O)c1cnc(NC(C)C)nc1)C2 (configuration not stated) | 12.5
68 | CCc1cnc(N2CCOC(CCOC)C2)nc1 (configuration not stated) | -13.5
69 | O=S(=O)(N1CCOCC1)N1CCOC(CCc2ccccc2)C1 (configuration not stated) | -4.48

Row | Structure (SMILES) | cytotoxicity at 70.5 h [%]
70 | COc1ccccc1CCN1CCCC(CN(C)Cc2ccc(C)o2)C1 (configuration not stated) | -8.57
71 | NCC1CN(Cc2cn(CCC(N)=O)c3ccccc23)CCO1 (configuration not stated) | 2.17
72 | COCc1ncc(-c2nccn2CCn2cnnc2)cn1 | -2.42
73 | Cc1nc(N)nc(N2CCOc3ccc(CO)cc3C2)c1C | 25.5
74 | Cc1cnn(CC(=O)N2CCC3(CCC(=O)N(C4CCCC4)C3)CC2)c1 | -2.24
75 | CCn1ccnc1CNc1nccc(-c2c(C)nn(C)c2C)n1 | -15.1
76 | CCN(Cc1cc(F)c(OC)c(Cl)c1)Cc1noc(CC(C)C)n1 | -10.5
77 | c1[nH]c(CC2CCCC2)nc1CN1CCCC2(CCOC2)C1 (configuration not stated) | -8.93
78 | CC(C)Cc1noc(-c2ccc(NCc3noc(C(C)C)n3)nc2)n1 | -5.16
79 | CO[C@H]1C[C@@H](O)C12CCN(C(=O)c1cccc(CCC(C)(C)O)c1)CC2 | -0.132
80 | O=C(CCO)N[C@H]1CN(CC2CCC2)C[C@@H]1c1ccccc1 | -3.06
81 | Cc1ccsc1CN(c1nc(CCN)nc2ccccc12)C1CC1 | 10.4
82 | CN(CC1CCOC1)S(=O)(=O)c1cccc(C(=O)N2CCOCC2)c1 (configuration not stated) | -4.27
83 | Cc1cc(C)c2nc(CNC3CCNC3=O)cc(O)c2c1 (configuration not stated) | -3.2
84 | Cc1cc(O)ccc1-c1cc(-c2cnn(C)c2C2CC2)c(C#N)c(N)n1 | 19.9
85 | CSc1cccc(CNC(=O)C2CC(=O)N(C3CC3)C2)c1 (configuration not stated) | -1.83
86 | COc1ncc(-c2ccc(NC(C)=O)cc2)c(OC)n1 | -11
87 | CN(Cc1cnc(N)nc1)C(=O)C1CCN(C(=O)C2CCCC2)CC1 | -4.62
88 | N#Cc1ccc(NCc2cc3n(n2)CCCN(C(=O)C2CCC2)C3)nc1 | -8.13
89 | CCc1ccccc1OCCN1CC[C@@]2(O)CCNC[C@H]2C1 | -3.34
90 | CCC1(O)CCCN(c2ncnc3c2c(C)nn3C)C1 (configuration not stated) | -4.68
91 | COc1ccc(NC(=O)CCC2CCCN(S(=O)(=O)C3CC3)C2)cc1Cl (configuration not stated) | 5.12
92 | Cc1nccc(N2CCC(Cc3cccc(C(=O)O)c3)CC2)n1 | -6.88

Row | Structure (SMILES) | cytotoxicity at 70.5 h [%]
93 | CCCc1nnc(NCCc2noc(C3CCC3)n2)o1 | -10.7
94 | NC(=O)c1cc2c(nc1CCOc1ccc(F)cc1)CCC2 | -2.31
95 | Cc1nn(C)c(C)c1CN(C)C1CCN(c2ncnc3[nH]cnc23)CC1 | 23.7
96 | COc1ccccc1[C@@H]1CN(Cc2nccn2C)C[C@H]1C(=O)O | -3.84
97 | Cc1ccc2nc(C3CCCN3Cc3scnc3C)[nH]c2c1 (configuration not stated) | -6.86
98 | Fc1ccccc1OC1CCN(CCn2cc3ccccc3n2)CC1 | -22
99 | Cc1cc(C)n(CC(=O)N2CCCCC2CCc2cccs2)c(=O)n1 (configuration not stated) | -13.4
100 | CSCC(=O)N1C[C@@H](C)[C@](O)(C(C)C)C1 | -7.39
101 | O=C(c1cnc(Nc2ccccc2)nc1)N1CCCC2(CCNC2)C1 (configuration not stated) | -8.38
102 | COc1ccc2[nH]c(=O)c(CN(C)CCN3CCCC3)cc2c1 | 57.1
103 | Cn1ncc2c(N[C@H]3CCCC[C@@H]3O)nc(C(C)(C)C)nc21 | -2.77
104 | COc1cnc(CN2CC(=O)N(c3ccc(C)cc3)CC2C)cc1O (configuration not stated) | -5.7
105 | c1ccc(OCCN2CCN(c3ncnc4[nH]ccc34)CC2)cc1 | 24.7
106 | CC(C)n1cnnc1CN(C)C(=O)C1CCCN(C2CCN(C)CC2)C1 (configuration not stated) | -3.47
107 | NC(=O)NCC(=O)N1CCCC(c2nccn2Cc2ccncc2)C1 (configuration not stated) | -1.01
108 | O=C(CC1CCc2ccccc21)NCCSc1cnn[nH]1 (configuration not stated) | -9.43
109 | CC1(C)CN(C(=O)CC2CCS(=O)(=O)CC2)C[C@]1(C)O | -4.68
110 | O=C(c1cc(-c2cn[nH]c2)nc2ccc(F)cc12)N1CCSCC1 | -5.34
111 | COCC(=O)N1C[C@@H](C)[C@](O)(C(C)C)C1 | -3.63
112 | Cc1cccc(N2CCN(CC(=O)N3CCCC(N(C)C)CC3)CC2)c1 (configuration not stated) | -4.61
